# Source: PubChem BioAssay AID248 (DTP/NCI, 2004)
# Several values for one entry are separate records, joined by “and”; a condition that tells them apart may be missing. Equal values may be shown once. Toxic doses and inconclusive results are not listed.
# System: L1210 leukemia ip in BDF1 mice, survival T/C
# Assay: NCI In Vivo Anticancer Drug Screen. Data for tumor model L1210 Leukemia (intraperitoneal) in B6D2F1 (BDF1) mice
# Conditions: endpoint: mean survival time, higher = longer survival
# Summary of the method: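 Transplanted-tumor mice were given test agent; controls received vehicle only. Survival readings from the two groups were divided (treated over control).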
# [1] = dose: 100.0 mg/kg/injection, schedule: Q04DX002 (ip), vehicle: saline with Tween-80
# [2] = dose: 200.0 mg/kg/injection, schedule: Q04DX002 (ip), vehicle: saline with Tween-80
# [3] = dose: 400.0 mg/kg/injection, schedule: Q04DX002 (ip), vehicle: saline with Tween-80
# [4] = dose: 100.0 mg/kg/injection, schedule: Q01DX009 (ip), vehicle: Klucel (hydroxypropylcellulose) (HPC)
# [5] = dose: 200.0 mg/kg/injection, schedule: Q01DX009 (ip), vehicle: Klucel (hydroxypropylcellulose) (HPC)
# [6] = dose: 400.0 mg/kg/injection, schedule: Q01DX009 (ip), vehicle: Klucel (hydroxypropylcellulose) (HPC)
# [7] = dose: 100.0 mg/kg/injection, schedule: Q04DX003 (ip), vehicle: saline
# [8] = dose: 200.0 mg/kg/injection, schedule: Q04DX003 (ip), vehicle: saline
# [9] = dose: 400.0 mg/kg/injection, schedule: Q04DX003 (ip), vehicle: saline
# [10] = dose: 25.0 mg/kg/injection, schedule: Q01DX009 (ip), vehicle: Klucel (hydroxypropylcellulose) (HPC)
# [11] = dose: 50.0 mg/kg/injection, schedule: Q01DX009 (ip), vehicle: Klucel (hydroxypropylcellulose) (HPC)
# [12] = dose: 100.0 mg/kg/injection, schedule: Q01DX001 (ip), vehicle: saline
# [13] = dose: 100.0 mg/kg/injection, schedule: Q04DX003 (ip), vehicle: saline with Tween-80
# [14] = dose: 200.0 mg/kg/injection, schedule: Q04DX003 (ip), vehicle: saline with Tween-80
# [15] = dose: 400.0 mg/kg/injection, schedule: Q04DX003 (ip), vehicle: saline with Tween-80
# [16] = dose: 25.0 mg/kg/injection, schedule: Q04DX003 (ip), vehicle: saline
# [17] = dose: 50.0 mg/kg/injection, schedule: Q04DX003 (ip), vehicle: saline
smiles,measurement,setting,value
Cc1cc(C)c(-c2cc(C(O)C3OC4OC(C)(C)OC4C4OC(C)(C)OC34)on2)c(C)c1 (stereo not given),T/C,[1],97 % of control
same,T/C,[2],87 % of control
same,T/C,[3],87 % of control
CC1(O)CCCCCC1,T/C,"dose: 50.0 mg/kg/injection, schedule: Q01DX001 (ip), vehicle: carboxymethylcellulose (CMC)",107 % of control
same,T/C,"dose: 100.0 mg/kg/injection, schedule: Q01DX001 (ip), vehicle: carboxymethylcellulose (CMC)",100 % of control
same,T/C,"dose: 200.0 mg/kg/injection, schedule: Q01DX001 (ip), vehicle: carboxymethylcellulose (CMC)",94 % of control
same,T/C,"dose: 400.0 mg/kg/injection, schedule: Q01DX001 (ip), vehicle: carboxymethylcellulose (CMC)",89 % of control
CCOCC(=O)c1c(O)cc(O)cc1O,T/C,[4],97 % of control
same,T/C,[5],92 % of control
same,T/C,[6],101 % of control
Cc1ccc(S(=O)(=O)N/N=C/C=C\C=N\NS(=O)(=O)c2ccc(C)cc2)cc1,T/C,[4],98 % of control
same,T/C,[5],96 % of control
same,T/C,[6],90 % of control
CCN(CC)C(=O)Cn1ccc(N)nc1=O,T/C,"dose: 100.0 mg/kg/injection, schedule: Q01DX009 (ip), vehicle: saline",115 % of control
same,T/C,[7],100 % of control
same,T/C,"dose: 200.0 mg/kg/injection, schedule: Q01DX009 (ip), vehicle: saline",98 % of control
same,T/C,[8],100 % of control
same,T/C,"dose: 400.0 mg/kg/injection, schedule: Q01DX009 (ip), vehicle: saline",97 % of control
same,T/C,[9],102 % of control
CCCCNC(C)(C)C(SSSC(c1ccc(Cl)cc1)C(C)(C)NCCCC)c1ccc(Cl)cc1 (stereo not given),T/C,"dose: 12.0 mg/kg/injection, schedule: Q01DX009 (ip), vehicle: Klucel (hydroxypropylcellulose) (HPC)",104 % of control
same,T/C,[10],100 % of control
same,T/C,[11],100 % of control
CCCCOP(=O)(NNC=O)OCCCC,T/C,[7],96 % of control
same,T/C,[8],98 % of control
same,T/C,[9],95 % of control
Nc1nc2c(ncn2C2OC(CO)C(O)C2O)c(=O)n1N (stereo not given),T/C,[12],102 % of control
same,T/C,"dose: 200.0 mg/kg/injection, schedule: Q01DX001 (ip), vehicle: saline",101 % of control
same,T/C,"dose: 400.0 mg/kg/injection, schedule: Q01DX001 (ip), vehicle: saline",95 % of control
CCOC(=O)Nc1ccc(Cl)c(Cl)c1,T/C,[4],98 % of control
same,T/C,[5],101 % of control
same,T/C,[6],108 % of control
Clc1ccc([PH+](c2ccc(Cl)cc2)c2ccc(Cl)cc2)cc1.Clc1ccc([PH+](c2ccc(Cl)cc2)c2ccc(Cl)cc2)cc1.[Cl][Hg][Cl],T/C,"dose: 6.25 mg/kg/injection, schedule: Q01DX009 (ip), vehicle: Klucel (hydroxypropylcellulose) (HPC)",108 % of control
same,T/C,"dose: 12.5 mg/kg/injection, schedule: Q01DX009 (ip), vehicle: Klucel (hydroxypropylcellulose) (HPC)",94 % of control
same,T/C,[10],97 % of control
same,T/C,[11],96 % of control
CC(C)(C)C1CCC(C(=O)c2ccccc2)CC1 (stereo not given),T/C,[13],100 % of control
same,T/C,[14],94 % of control
same,T/C,[15],89 % of control
COC(=O)c1[nH]c(=O)[nH]c(=O)c1F,T/C,"dose: 1.0 mg/kg/injection, schedule: Q01DX009 (ip), vehicle: saline with Tween-80",103 % of control
same,T/C,"dose: 1.0 mg/kg/injection, schedule: Q01DX Z (ip), vehicle: methylcellulose (MC)",115 % of control
same,T/C,"dose: 2.0 mg/kg/injection, schedule: Q01DX009 (ip), vehicle: saline with Tween-80",110 % of control
same,T/C,"dose: 2.0 mg/kg/injection, schedule: Q01DX Z (ip), vehicle: carboxymethylcellulose (CMC)",118 % of control
same,T/C,"dose: 3.0 mg/kg/injection, schedule: Q01DX Z (ip), vehicle: carboxymethylcellulose (CMC)",124 % of control
same,T/C,"dose: 3.0 mg/kg/injection, schedule: Q01DX Z (ip), vehicle: methylcellulose (MC)",151 % of control
same,T/C,"dose: 4.0 mg/kg/injection, schedule: Q01DX009 (ip), vehicle: saline with Tween-80",123 % of control
same,T/C,"dose: 5.0 mg/kg/injection, schedule: Q01DX Z (ip), vehicle: carboxymethylcellulose (CMC)",185 % of control
same,T/C,"dose: 6.0 mg/kg/injection, schedule: Q01DX Z (ip), vehicle: methylcellulose (MC)",172 % of control
same,T/C,"dose: 8.0 mg/kg/injection, schedule: Q01DX009 (ip), vehicle: saline with Tween-80",167 % of control
same,T/C,"dose: 8.0 mg/kg/injection, schedule: Q01DX Z (ip), vehicle: carboxymethylcellulose (CMC)",150 % of control
same,T/C,"dose: 17.0 mg/kg/injection, schedule: Q01DX Z (ip), vehicle: carboxymethylcellulose (CMC)",97 % of control
same,T/C,"dose: 24.0 mg/kg/injection, schedule: Q01DX Z (ip), vehicle: methylcellulose (MC)",114 % of control
same,T/C,"dose: 25.0 mg/kg/injection, schedule: Q01DX Z (ip), vehicle: carboxymethylcellulose (CMC)",120 % of control
same,T/C,"dose: 32.0 mg/kg/injection, schedule: Q01DX009 (ip), vehicle: saline with Tween-80",92 % of control
same,T/C,"dose: 32.0 mg/kg/injection, schedule: Q04DX003 (ip), vehicle: saline with Tween-80",157 % of control
same,T/C,"dose: 38.0 mg/kg/injection, schedule: Q01DX Z (ip), vehicle: carboxymethylcellulose (CMC)",101 % of control
same,T/C,"dose: 48.0 mg/kg/injection, schedule: Q01DX Z (ip), vehicle: methylcellulose (MC)",114 % of control
same,T/C,"dose: 64.0 mg/kg/injection, schedule: Q04DX003 (ip), vehicle: saline with Tween-80",215 % of control
same,T/C,"dose: 90.0 mg/kg/injection, schedule: Q01DX Z (ip), vehicle: methylcellulose (MC)",91 % of control
CN(C)C(C(=O)O)c1ccccc1 (stereo not given),T/C,[1],101 % of control
same,T/C,[2],97 % of control
same,T/C,[3],97 % of control
OCCN1CCN(CC/C=C2/c3ccccc3Sc3ccc(Cl)cc32)CC1,T/C,"dose: 6.25 mg/kg/injection, schedule: Q01DX001 (ip), vehicle: saline",96 % of control
same,T/C,"dose: 8.0 mg/kg/injection, schedule: Q01DX015 (ip), vehicle: saline",107 % of control
same,T/C,"dose: 12.5 mg/kg/injection, schedule: Q01DX001 (ip), vehicle: saline",102 % of control
same,T/C,"dose: 12.5 mg/kg/injection, schedule: Q01DX009 (ip), vehicle: saline",108 % of control
same,T/C,"dose: 25.0 mg/kg/injection, schedule: Q01DX001 (ip), vehicle: saline",98 % of control and 122 % of control
same,T/C,"dose: 25.0 mg/kg/injection, schedule: Q01DX009 (ip), vehicle: saline",116 % of control
same,T/C,[16],110 % of control
same,T/C,"dose: 37.5 mg/kg/injection, schedule: Q01DX001 (ip), vehicle: saline",101 % of control
same,T/C,"dose: 50.0 mg/kg/injection, schedule: Q01DX001 (ip), vehicle: saline",113 % of control
same,T/C,[17],116 % of control
same,T/C,"dose: 75.0 mg/kg/injection, schedule: Q01DX001 (ip), vehicle: saline",102 % of control and 120 % of control
same,T/C,[12],100 % of control
COc1ccccc1NC1=C(NC(=O)Cc2ccccc2)C(=O)c2ccccc2C1=O,T/C,[13],98 % of control
same,T/C,[14],96 % of control
same,T/C,[15],94 % of control
CCCCCCCCCCCCCCCCNS(=O)(=O)c1ccc(NN)cc1,T/C,[11],98 % of control
same,T/C,[4],99 % of control
same,T/C,"dose: 100.0 mg/kg/injection, schedule: Q04DX003 (ip), vehicle: Klucel (hydroxypropylcellulose) (HPC)",97 % of control
same,T/C,[5],91 % of control
same,T/C,"dose: 200.0 mg/kg/injection, schedule: Q04DX003 (ip), vehicle: Klucel (hydroxypropylcellulose) (HPC)",95 % of control
CNC1(c2ccccc2)CC2CCC(C2)C1=O (stereo not given),T/C,[16],100 % of control
same,T/C,[17],86 % of control
same,T/C,[12],102 % of control
Cc1ccc(C2C(C(=O)c3ccccc3)N2Cc2ccccc2)cc1 (stereo not given),T/C,"dose: 100.0 mg/kg/injection, schedule: Q01DX001 (ip), vehicle: Klucel (hydroxypropylcellulose) (HPC)",98 % of control
same,T/C,"dose: 200.0 mg/kg/injection, schedule: Q01DX001 (ip), vehicle: Klucel (hydroxypropylcellulose) (HPC)",95 % of control
CCNC(=O)OCCN1C(=O)C2C3CCC(O3)C2C1=O (stereo not given),T/C,"dose: 100.0 mg/kg/injection, schedule: Q01DX001 (ip), vehicle: saline with Tween-80",98 % of control
same,T/C,[13],100 % of control
same,T/C,"dose: 200.0 mg/kg/injection, schedule: Q01DX001 (ip), vehicle: saline with Tween-80",103 % of control
same,T/C,[14],100 % of control
same,T/C,"dose: 400.0 mg/kg/injection, schedule: Q01DX001 (ip), vehicle: saline with Tween-80",113 % of control
same,T/C,[15],97 % of control
C=C(Nc1ccc2ccccc2c1)S(=O)(=O)O,T/C,[4],94 % of control
same,T/C,[5],103 % of control
same,T/C,[6],96 % of control
